Results on 1 compound are retold here after patent US10561676B2, “Method for treating cancer using dual antagonists of CXCR1 and CXCR2” (Syntrix Biosystems, Inc., priority 2018, dated 2020).

The assay concerns 60 human tumor cell line panel. In words: 60 human tumor cell line panel proliferation (SRB). It counts as cell-based. Particulars: 0.01-100 μM, 48 h. As to the method:
The chemokine CXCL8 and its receptors CXCR1 and CXCR2 have been identified as important mediators of cellular proliferation for a number of tumor cell types.
The human tumor cell lines of the cancer screening panel were grown in RPMI 1640 medium containing 5% fetal bovine serum and 2 mM L-glutamine. […] After cell inoculation, the microtiter plates were incubated at 37° C., 5% CO2, 95% air and 100% relative humidity for 24 h prior to addition of SX-682.
After 24 h, two plates of each cell line are fixed in situ with TCA, to represent a measurement of the cell population for each cell line at the time of drug addition (Tz). […]
Following drug addition, the plates were incubated for an additional 48 h at 37° C., 5% CO2, 95% air, and 100% relative humidity. […] Bound stain was subsequently solubilized with 10 mM TRIS, and the absorbance was read on an automated plate reader at a wavelength of 515 nm. […] Using the seven absorbance measurements (time zero, (Tz), control growth, (C), and test growth in the presence of drug at the five concentration levels (Ti)), the percentage growth was calculated at each of the drug concentrations levels. Percentage growth inhibition was calculated as: (Ti−Tz)/(C−Tz)×100 for concentrations for which Ti>/=Tz (Ti−Tz)/Tz×100 for concentrations for which Ti<Tz.
Three dose response parameters were calculated for each experimental agent. […]

Consider `O=C(Nc1ccc(F)cc1)c1cnc(SCc2cc(OC(F)(F)F)ccc2B(O)O)nc1` [SX-682, 2-(2-boronic acid-5-trifluoromethoxy-benzylsulfanyl)-pyrimidine-5-carboxylic acid (4-fluoro-phenyl)-amide], for which the tumor cell proliferation result is listed as “directly affect the proliferation of human tumor cells”.
